Laboratory results reported in ChEMBL document CHEMBL5291721, “A preclinical secondary pharmacology resource illuminates target-adverse drug reaction associations of marketed drugs” (Nat Commun, 2023).

Tests used:
[1] = biological target: Adenosine receptor A2a (Homo sapiens, UniProt P29274)
[2] = biological target: T1, Alpha-2A adrenergic receptor (Homo sapiens, UniProt P08913); assay type: functional, cell-based
T1 sequence (P08913 whole entry): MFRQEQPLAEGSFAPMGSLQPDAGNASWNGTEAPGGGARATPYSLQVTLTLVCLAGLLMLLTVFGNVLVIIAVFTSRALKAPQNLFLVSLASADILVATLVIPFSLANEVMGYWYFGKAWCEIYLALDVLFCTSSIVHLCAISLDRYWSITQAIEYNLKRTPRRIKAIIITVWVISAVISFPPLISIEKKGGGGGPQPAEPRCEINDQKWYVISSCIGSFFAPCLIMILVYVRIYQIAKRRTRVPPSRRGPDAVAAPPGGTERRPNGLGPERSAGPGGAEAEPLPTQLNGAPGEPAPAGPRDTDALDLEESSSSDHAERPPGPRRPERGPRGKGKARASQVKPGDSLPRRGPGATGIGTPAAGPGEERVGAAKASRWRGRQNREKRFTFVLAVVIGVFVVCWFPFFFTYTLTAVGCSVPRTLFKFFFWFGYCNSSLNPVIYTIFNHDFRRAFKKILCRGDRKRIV

[3] = biological target: Vasopressin V2 receptor (Homo sapiens, UniProt P30518)
[4] = biological target: T2, B2 bradykinin receptor (Homo sapiens, UniProt P30411)
T2 sequence (P30411 whole entry): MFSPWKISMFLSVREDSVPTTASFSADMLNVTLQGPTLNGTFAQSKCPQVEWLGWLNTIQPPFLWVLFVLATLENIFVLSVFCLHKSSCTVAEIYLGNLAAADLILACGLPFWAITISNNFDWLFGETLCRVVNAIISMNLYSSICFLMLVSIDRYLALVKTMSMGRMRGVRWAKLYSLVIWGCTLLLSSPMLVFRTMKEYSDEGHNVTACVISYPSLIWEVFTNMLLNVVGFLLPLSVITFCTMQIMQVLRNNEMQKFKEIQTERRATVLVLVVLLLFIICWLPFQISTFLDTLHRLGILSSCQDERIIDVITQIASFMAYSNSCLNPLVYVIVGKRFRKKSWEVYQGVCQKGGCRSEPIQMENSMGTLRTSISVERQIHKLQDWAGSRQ

[5] = biological target: Cannabinoid receptor 1 (Homo sapiens, UniProt P21554); assay type: functional, cell-based
[6] = biological target: T3, Estrogen receptor (Homo sapiens, UniProt P03372)
T3 sequence (P03372 whole entry): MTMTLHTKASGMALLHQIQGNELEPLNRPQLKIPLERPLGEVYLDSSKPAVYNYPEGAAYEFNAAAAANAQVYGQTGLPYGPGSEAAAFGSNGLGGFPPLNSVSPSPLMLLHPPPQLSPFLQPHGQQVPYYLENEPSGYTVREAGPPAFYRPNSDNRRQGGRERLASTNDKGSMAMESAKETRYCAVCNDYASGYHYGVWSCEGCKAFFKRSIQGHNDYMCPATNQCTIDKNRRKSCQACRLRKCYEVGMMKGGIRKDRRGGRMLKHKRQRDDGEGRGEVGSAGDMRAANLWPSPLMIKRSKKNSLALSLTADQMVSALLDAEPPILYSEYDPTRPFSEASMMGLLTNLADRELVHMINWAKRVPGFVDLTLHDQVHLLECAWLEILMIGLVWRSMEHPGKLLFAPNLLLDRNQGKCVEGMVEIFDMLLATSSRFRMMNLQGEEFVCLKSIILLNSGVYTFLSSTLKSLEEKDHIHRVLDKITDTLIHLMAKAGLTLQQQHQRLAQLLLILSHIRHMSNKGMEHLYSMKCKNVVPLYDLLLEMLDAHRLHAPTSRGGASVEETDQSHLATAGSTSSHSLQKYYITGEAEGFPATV

[7] = biological target: Gamma-aminobutyric acid receptor subunit alpha-1 (Rattus norvegicus, UniProt P62813); assay type: functional
[8] = biological target: 5-hydroxytryptamine receptor 2B (Homo sapiens, UniProt P41595); assay type: functional, cell-based
[9] = biological target: Motilin receptor (Homo sapiens, UniProt O43193)
[10] = biological target: Kappa-type opioid receptor (Homo sapiens, UniProt P41145)
[11] = biological target: Mu-type opioid receptor (Homo sapiens, UniProt P35372)
[12] = biological target: D(3) dopamine receptor (Homo sapiens, UniProt P35462)
[13] = biological target: T4, Gastrin/cholecystokinin type B receptor (Homo sapiens, UniProt P32239)
T4 sequence (P32239 whole entry): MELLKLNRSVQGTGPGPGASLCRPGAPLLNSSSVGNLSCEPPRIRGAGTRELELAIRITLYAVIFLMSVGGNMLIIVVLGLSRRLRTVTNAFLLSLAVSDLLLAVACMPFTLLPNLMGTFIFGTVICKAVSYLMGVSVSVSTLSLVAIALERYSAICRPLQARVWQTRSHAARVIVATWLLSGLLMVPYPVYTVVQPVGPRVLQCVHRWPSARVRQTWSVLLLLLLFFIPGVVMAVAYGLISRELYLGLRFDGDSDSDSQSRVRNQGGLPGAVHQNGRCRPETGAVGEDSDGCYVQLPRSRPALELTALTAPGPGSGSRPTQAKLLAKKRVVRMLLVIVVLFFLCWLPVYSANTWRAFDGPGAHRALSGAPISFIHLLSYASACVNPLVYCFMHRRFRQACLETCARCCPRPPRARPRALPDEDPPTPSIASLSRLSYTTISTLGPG

[14] = biological target: T5, Alpha-2B adrenergic receptor (Homo sapiens, UniProt P18089)
T5 sequence (P18089 whole entry): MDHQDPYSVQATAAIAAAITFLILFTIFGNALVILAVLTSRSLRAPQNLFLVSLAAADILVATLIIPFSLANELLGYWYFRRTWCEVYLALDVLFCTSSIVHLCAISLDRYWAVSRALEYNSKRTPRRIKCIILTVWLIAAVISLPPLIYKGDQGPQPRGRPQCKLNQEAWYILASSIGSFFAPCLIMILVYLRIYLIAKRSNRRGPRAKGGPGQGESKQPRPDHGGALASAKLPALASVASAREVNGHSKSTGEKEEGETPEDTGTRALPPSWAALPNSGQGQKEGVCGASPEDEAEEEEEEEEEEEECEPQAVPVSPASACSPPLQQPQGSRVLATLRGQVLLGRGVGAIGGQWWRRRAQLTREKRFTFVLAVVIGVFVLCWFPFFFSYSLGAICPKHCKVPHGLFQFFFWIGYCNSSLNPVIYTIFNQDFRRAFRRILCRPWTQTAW
Also: assay procedure not described here.

Sequence of 5-hydroxytryptamine receptor 2B (P41595 whole entry): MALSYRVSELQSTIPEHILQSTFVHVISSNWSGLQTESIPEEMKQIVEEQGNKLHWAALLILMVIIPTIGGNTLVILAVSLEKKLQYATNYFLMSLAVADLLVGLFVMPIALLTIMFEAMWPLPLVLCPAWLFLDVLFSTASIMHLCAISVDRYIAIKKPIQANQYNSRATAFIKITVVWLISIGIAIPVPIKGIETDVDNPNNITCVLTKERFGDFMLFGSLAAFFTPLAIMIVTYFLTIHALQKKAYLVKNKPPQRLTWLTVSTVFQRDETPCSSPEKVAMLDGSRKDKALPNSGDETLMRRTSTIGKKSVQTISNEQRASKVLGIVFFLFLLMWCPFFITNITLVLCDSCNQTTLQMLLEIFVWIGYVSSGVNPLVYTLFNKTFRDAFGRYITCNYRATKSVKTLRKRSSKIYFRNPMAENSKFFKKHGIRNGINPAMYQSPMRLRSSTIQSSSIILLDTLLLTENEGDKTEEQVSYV
Sequence of Adenosine receptor A2a (P29274 whole entry): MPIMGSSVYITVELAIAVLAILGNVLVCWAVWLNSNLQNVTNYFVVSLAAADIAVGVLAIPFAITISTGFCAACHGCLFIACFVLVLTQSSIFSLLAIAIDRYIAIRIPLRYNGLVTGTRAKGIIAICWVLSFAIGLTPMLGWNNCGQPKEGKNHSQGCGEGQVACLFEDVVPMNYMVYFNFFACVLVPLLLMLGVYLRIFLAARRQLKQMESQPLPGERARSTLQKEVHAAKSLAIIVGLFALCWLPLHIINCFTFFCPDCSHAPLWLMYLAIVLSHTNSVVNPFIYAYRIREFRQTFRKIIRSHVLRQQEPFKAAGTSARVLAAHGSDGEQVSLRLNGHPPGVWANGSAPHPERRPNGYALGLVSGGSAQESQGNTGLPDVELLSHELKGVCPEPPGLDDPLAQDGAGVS
Sequence of Mu-type opioid receptor (P35372 whole entry): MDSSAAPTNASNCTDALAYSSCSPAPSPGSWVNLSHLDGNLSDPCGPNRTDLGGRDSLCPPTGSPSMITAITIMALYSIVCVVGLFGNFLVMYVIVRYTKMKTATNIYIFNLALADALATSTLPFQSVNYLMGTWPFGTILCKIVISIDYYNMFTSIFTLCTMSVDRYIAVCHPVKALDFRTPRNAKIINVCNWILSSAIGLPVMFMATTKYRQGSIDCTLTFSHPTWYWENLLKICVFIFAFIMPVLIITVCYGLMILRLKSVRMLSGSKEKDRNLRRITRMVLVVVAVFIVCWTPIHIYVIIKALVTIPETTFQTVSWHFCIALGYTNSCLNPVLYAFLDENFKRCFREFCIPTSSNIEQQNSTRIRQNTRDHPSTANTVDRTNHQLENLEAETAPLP
Sequence of Cannabinoid receptor 1 (P21554 whole entry): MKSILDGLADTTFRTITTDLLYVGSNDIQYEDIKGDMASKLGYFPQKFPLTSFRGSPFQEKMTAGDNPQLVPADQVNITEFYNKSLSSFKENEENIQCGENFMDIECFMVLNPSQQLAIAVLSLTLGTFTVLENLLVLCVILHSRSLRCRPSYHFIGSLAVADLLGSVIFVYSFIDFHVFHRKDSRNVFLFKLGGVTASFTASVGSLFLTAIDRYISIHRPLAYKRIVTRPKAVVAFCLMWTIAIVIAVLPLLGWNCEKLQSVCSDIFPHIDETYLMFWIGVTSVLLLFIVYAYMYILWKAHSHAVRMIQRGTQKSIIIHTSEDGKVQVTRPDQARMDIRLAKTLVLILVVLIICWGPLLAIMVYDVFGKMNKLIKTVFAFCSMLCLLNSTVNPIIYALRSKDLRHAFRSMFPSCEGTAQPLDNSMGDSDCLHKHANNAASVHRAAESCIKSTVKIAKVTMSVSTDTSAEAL
Sequence of Kappa-type opioid receptor (P41145 whole entry): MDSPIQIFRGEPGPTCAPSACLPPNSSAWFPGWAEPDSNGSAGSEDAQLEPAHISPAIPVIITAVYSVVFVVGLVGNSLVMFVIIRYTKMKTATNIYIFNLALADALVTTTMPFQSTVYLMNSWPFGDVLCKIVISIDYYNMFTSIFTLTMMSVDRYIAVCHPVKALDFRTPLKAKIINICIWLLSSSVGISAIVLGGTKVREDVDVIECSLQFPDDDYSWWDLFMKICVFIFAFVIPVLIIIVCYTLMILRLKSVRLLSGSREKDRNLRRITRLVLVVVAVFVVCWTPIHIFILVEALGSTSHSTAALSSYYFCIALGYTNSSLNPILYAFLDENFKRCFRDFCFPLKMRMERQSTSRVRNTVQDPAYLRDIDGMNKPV
Sequence of Motilin receptor (O43193 whole entry): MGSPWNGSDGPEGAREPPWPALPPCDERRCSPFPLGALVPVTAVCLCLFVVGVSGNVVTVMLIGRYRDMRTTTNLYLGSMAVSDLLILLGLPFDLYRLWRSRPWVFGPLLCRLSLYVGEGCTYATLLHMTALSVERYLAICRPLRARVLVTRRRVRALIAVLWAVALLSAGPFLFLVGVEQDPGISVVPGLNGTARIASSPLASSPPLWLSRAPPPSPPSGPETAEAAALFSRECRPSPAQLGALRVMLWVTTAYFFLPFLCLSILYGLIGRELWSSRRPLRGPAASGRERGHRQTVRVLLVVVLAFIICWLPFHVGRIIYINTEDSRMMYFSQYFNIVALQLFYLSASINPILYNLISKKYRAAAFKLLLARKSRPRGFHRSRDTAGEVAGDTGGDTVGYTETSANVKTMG
Sequence of Gamma-aminobutyric acid receptor subunit alpha-1 (P62813 whole entry): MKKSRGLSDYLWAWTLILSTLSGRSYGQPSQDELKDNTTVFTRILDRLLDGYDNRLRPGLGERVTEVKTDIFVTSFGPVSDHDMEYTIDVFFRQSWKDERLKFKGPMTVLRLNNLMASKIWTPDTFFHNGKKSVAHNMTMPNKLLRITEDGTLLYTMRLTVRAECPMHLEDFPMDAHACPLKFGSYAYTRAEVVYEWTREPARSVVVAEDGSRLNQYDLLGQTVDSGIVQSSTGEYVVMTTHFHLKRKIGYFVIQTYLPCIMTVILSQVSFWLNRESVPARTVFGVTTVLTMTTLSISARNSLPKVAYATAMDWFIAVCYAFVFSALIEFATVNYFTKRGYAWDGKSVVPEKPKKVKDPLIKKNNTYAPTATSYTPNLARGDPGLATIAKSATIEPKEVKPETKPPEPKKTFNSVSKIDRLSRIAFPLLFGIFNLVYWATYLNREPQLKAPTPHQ
Sequence of D(3) dopamine receptor (P35462 whole entry): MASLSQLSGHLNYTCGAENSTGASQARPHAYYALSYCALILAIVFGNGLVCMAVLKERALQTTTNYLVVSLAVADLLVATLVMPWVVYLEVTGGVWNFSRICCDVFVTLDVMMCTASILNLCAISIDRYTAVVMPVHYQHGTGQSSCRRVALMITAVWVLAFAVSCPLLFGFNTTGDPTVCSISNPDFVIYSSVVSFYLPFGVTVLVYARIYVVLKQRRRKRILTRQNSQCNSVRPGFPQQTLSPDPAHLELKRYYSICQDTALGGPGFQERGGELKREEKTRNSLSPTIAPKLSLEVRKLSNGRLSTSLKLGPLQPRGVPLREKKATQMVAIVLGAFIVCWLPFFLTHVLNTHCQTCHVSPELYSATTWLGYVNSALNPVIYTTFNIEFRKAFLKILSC

Row | Compound | AC50 [1] [µM] | AC50 [2] [µM] | AC50 [3] [µM] | AC50 [4] [µM] | AC50 [5] [µM] | AC50 [6] [µM] | AC50 [7] [µM] | AC50 [8] [µM] | AC50 [9] [µM] | AC50 [10] [µM] | AC50 [11] [µM] | AC50 [12] [µM] | AC50 [13] [µM] | AC50 [14] [µM]
1 | CC(=O)N1CCN(c2ccc(OCC3COC(Cn4ccnc4)(c4ccc(Cl)cc4Cl)O3)cc2)CC1 (stereo unspecified) [KETOCONAZOLE] | > 30 | > 10 | > 10 | > 10 | > 30 | > 10 | > 10 | 15 | > 10 | > 10 | > 30 | > 30 |  | 
2 | CN1CCC(=C2c3ccccc3CC(=O)c3sccc32)CC1 [KETOTIFEN] | > 10 | > 10 | > 10 | > 10 | > 30 | > 10 | > 10 | 0.09 | > 10 | 5.38 | > 30 | 3 |  | 
3 | Nc1cc(N2CCCCC2)nc(N)[n+]1[O-] [MINOXIDIL] | > 30 | > 10 | > 30 | > 30 |  | > 30 | > 10 | > 10 | > 10 | > 10 | > 30 | > 30 | > 30 | 
4 | CC(C)(C)NCC(O)COc1cccc2c1CC(O)C(O)C2 (stereo unspecified) [NADOLOL] | > 10 | > 10 | > 10 | > 10 | > 30 | > 10 | > 10 | > 10 | > 10 | > 10 | > 30 | > 30 |  | 
5 | Cc1cccc(Nc2ccncc2S(=O)(=O)NC(=O)NC(C)C)c1 [TORSEMIDE] | > 30 | > 10 | > 30 | > 30 |  | > 10 | > 10 | > 10 | > 30 | > 10 | > 30 | > 30 | > 30 | 
6 | CCN(C(C)=O)c1cccc(-c2ccnc3c(C#N)cnn23)c1 [ZALEPLON] | > 30 | > 10 | > 30 | > 30 | > 30 | > 30 |  | > 10 | > 30 | > 10 | > 30 | > 30 | > 30 | 
7 | TEPRENONE | > 30 | > 10 | > 30 | > 30 | > 30 | > 30 | > 10 | > 10 | > 10 | 17 | > 30 | > 30 | > 30 | > 10
